What all share (test): Ray2010 Assay 74
Experiment [1] addresses T1, 5-hydroxytryptamine receptor 1A (Homo sapiens, UniProt P08908).
T1 sequence (P08908 whole entry): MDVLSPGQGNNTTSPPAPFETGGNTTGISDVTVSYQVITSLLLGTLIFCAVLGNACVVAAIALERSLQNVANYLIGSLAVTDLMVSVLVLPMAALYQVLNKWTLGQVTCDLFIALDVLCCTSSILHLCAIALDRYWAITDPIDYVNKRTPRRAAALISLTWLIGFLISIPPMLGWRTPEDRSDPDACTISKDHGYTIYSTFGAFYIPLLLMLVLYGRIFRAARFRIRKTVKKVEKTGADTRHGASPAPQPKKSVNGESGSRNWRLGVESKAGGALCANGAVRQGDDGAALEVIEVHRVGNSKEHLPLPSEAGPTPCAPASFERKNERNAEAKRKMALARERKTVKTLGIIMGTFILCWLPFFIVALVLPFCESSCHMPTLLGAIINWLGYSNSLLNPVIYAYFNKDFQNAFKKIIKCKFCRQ
The text has this:
(§1) Table S2 shows raw Ki data for the current study combined with data collected from the literature for the ten additional compounds.

In experiment [2] the target is 5-hydroxytryptamine receptor 1B (Homo sapiens, UniProt P28222).
5-hydroxytryptamine receptor 1B, sequence (P28222 whole entry): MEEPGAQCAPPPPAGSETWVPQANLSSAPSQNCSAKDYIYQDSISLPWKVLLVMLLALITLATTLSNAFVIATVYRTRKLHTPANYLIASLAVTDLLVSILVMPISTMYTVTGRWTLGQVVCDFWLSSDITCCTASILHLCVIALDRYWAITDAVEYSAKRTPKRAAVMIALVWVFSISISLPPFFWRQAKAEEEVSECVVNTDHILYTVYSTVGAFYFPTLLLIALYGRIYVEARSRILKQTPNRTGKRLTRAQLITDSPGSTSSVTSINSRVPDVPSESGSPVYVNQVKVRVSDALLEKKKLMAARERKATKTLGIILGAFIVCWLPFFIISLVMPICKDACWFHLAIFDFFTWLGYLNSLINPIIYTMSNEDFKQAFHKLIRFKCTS
Source text: as §1

For experiment [3], the target named is 5-hydroxytryptamine receptor 1E (Homo sapiens, UniProt P28566).
5-hydroxytryptamine receptor 1E, sequence (P28566 whole entry): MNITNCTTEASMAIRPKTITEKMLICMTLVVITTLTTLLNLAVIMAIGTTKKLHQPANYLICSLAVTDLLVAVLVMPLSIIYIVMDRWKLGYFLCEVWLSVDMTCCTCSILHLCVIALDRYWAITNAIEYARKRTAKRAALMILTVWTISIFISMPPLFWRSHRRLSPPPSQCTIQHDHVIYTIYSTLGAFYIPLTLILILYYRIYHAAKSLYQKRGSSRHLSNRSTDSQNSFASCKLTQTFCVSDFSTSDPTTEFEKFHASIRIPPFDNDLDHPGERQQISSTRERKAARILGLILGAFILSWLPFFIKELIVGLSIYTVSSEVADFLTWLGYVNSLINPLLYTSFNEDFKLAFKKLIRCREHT
Source text: as §1

Experiment [4] addresses 5-hydroxytryptamine receptor 2A (Homo sapiens, UniProt P28223).
Source text: as §1

Experiment [5] addresses 5-hydroxytryptamine receptor 2B (Homo sapiens, UniProt P41595).
Source text: as §1

Experiment [6] has as its target 5-hydroxytryptamine receptor 5A (Homo sapiens, UniProt P47898).
Source text: as §1

In experiment [7] the target is 5-hydroxytryptamine receptor 6 (Homo sapiens, UniProt P50406).
5-hydroxytryptamine receptor 6, sequence (P50406 whole entry): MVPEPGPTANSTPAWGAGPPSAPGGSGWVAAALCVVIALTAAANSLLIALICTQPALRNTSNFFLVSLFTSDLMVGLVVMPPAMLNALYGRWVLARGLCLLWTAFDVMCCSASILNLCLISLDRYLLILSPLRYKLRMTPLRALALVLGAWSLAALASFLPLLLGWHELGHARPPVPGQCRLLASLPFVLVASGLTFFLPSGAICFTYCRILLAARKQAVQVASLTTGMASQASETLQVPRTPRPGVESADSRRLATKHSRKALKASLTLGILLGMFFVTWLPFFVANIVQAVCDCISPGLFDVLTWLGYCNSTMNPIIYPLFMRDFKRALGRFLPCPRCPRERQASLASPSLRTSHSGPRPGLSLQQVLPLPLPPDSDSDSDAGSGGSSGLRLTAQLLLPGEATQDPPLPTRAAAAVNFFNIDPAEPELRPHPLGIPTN
Source text: as §1

The target in experiment [8] is T2, Alpha-1A adrenergic receptor (Homo sapiens, UniProt P35348).
T2 sequence (P35348 whole entry): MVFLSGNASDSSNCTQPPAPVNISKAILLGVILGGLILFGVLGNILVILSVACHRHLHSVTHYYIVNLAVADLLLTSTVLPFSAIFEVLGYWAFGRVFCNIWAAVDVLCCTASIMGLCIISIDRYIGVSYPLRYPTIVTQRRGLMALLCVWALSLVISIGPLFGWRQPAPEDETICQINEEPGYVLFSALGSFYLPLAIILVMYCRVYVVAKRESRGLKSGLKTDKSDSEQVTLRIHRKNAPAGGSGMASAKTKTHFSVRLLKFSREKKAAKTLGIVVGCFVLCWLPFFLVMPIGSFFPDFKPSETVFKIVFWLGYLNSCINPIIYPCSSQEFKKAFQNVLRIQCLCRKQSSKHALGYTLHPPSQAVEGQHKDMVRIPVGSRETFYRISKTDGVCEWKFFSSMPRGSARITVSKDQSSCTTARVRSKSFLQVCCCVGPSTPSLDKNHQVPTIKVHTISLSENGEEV
Source text: as §1

The next experiment deals with D(1A) dopamine receptor (Homo sapiens, UniProt P21728).
Source text: as §1

A further experiment has as its target D(2) dopamine receptor (Homo sapiens, UniProt P14416).
Source text: as §1

A further experiment deals with Histamine H1 receptor (Homo sapiens, UniProt P35367).
Histamine H1 receptor, sequence (P35367 whole entry): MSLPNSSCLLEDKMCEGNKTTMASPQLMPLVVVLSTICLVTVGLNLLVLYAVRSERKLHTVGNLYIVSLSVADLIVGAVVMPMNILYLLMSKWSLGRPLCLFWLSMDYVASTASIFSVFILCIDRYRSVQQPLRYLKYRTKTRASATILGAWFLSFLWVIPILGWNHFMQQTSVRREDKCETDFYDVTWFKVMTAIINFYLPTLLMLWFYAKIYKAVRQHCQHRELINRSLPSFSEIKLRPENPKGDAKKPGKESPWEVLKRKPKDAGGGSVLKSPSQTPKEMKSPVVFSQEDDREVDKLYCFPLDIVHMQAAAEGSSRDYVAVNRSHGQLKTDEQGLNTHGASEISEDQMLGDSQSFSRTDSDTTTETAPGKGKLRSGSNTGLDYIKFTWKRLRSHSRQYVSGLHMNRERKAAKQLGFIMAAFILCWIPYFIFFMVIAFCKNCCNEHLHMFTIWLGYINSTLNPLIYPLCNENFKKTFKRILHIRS
Source text: as §1

Experiment [9] addresses T3, 5-hydroxytryptamine receptor 3A (Homo sapiens, UniProt P46098).
T3 sequence (P46098 whole entry): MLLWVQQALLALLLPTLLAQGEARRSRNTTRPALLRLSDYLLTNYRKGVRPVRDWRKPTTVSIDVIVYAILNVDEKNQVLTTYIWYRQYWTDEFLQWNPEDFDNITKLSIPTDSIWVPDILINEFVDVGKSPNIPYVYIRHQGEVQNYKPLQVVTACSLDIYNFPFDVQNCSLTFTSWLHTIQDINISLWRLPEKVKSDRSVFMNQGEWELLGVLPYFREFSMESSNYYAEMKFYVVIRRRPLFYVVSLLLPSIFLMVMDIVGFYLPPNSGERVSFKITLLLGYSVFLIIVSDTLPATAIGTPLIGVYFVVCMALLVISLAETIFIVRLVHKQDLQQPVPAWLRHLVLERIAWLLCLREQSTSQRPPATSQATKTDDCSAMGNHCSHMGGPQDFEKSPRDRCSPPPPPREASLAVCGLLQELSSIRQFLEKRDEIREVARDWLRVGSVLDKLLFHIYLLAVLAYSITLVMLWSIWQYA
Source text: as §1

The next experiment deals with Cannabinoid receptor 1 (Homo sapiens, UniProt P21554).
Source text: as §1

A further experiment concerns the target Cannabinoid receptor 2 (Homo sapiens, UniProt P34972).
Source text: as §1

For the next experiment, the target named is D(1B) dopamine receptor (Homo sapiens, UniProt P21918).
D(1B) dopamine receptor, sequence (P21918 whole entry): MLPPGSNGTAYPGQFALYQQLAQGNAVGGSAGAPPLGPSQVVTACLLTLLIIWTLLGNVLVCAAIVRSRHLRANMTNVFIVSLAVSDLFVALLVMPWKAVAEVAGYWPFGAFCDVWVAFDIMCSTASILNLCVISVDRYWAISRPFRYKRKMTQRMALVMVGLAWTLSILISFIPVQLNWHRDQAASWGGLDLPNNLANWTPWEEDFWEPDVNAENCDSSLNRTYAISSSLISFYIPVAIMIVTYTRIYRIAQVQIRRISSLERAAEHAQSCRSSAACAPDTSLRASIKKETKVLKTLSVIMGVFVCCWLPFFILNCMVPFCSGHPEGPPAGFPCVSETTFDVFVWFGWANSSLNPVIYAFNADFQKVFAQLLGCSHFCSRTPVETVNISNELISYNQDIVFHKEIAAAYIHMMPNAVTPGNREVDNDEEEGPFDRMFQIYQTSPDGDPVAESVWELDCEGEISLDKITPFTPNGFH
Source text: as §1

For experiment [10], the target named is T4, Gamma-aminobutyric acid receptor subunit alpha-1/Adenosine receptor A1 (Homo sapiens, UniProt P14867+P30542).
T4 sequence (P30542 whole entry): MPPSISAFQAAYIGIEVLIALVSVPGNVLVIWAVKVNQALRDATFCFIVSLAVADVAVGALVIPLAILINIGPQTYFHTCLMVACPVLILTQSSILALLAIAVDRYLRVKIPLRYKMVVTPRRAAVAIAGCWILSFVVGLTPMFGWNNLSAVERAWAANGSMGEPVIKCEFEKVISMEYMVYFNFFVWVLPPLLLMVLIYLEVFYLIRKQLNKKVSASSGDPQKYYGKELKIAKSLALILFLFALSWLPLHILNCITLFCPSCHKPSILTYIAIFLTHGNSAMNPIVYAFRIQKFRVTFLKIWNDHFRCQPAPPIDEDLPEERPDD
T4 sequence (P14867 whole entry): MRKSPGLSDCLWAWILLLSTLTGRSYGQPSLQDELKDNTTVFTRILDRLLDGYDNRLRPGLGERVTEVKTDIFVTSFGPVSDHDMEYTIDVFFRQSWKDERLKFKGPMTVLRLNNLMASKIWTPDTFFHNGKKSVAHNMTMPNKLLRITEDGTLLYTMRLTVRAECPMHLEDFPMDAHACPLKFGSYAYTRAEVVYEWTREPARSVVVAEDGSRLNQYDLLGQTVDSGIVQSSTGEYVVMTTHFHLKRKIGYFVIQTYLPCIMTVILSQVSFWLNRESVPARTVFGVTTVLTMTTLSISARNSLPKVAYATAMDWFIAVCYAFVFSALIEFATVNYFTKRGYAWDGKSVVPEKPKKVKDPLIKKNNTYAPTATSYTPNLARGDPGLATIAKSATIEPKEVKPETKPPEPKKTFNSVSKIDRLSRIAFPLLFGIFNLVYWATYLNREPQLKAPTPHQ
Source text: as §1

The target of experiment [11] is Kappa-type opioid receptor (Homo sapiens, UniProt P41145).
Source text: as §1

Experiment [12] addresses T5, Muscarinic acetylcholine receptor M4 (Homo sapiens, UniProt P08173).
T5 sequence (P08173 whole entry): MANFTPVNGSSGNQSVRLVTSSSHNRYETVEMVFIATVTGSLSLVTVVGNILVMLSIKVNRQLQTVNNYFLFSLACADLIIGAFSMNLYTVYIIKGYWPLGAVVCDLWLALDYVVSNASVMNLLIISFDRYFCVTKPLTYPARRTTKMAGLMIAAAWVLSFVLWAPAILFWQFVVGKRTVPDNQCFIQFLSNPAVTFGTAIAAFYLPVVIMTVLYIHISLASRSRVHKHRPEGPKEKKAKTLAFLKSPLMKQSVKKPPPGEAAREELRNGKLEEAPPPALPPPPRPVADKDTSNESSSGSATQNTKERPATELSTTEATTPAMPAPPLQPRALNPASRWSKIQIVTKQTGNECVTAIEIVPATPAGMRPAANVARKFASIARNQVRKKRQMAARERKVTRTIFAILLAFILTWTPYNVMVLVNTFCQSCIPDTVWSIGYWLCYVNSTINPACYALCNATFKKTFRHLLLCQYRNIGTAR
Source text: as §1

In experiment [13] the target is T6, Muscarinic acetylcholine receptor M5 (Homo sapiens, UniProt P08912).
T6 sequence (P08912 whole entry): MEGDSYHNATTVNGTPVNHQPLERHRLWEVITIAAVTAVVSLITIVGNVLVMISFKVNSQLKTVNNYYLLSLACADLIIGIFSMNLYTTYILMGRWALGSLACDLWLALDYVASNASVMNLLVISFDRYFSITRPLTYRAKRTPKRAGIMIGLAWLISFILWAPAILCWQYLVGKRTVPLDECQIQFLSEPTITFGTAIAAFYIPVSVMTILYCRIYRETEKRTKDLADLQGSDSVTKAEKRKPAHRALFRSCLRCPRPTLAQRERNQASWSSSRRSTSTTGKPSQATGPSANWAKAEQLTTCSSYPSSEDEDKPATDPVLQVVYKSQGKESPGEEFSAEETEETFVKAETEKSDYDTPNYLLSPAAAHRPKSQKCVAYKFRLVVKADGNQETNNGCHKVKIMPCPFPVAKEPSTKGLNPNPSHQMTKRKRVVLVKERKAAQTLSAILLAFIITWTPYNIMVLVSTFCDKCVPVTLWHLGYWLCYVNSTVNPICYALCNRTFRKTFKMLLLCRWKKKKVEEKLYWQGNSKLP
Source text: as §1

The next experiment concerns the target Nischarin (Homo sapiens, UniProt Q9Y2I1).
Source text: as §1

Experiment [14] concerns the target Voltage-dependent calcium channel subunit alpha-2/delta-1 (Homo sapiens, UniProt P54289).
Source text: as §1

The text below walks through data of BindingDB's records for PubMed 20126400 (University of Oklahoma, 2010).

Some results are limits rather than exact numbers.

5-hydroxytryptamine receptor 5A, sequence (P47898 whole entry): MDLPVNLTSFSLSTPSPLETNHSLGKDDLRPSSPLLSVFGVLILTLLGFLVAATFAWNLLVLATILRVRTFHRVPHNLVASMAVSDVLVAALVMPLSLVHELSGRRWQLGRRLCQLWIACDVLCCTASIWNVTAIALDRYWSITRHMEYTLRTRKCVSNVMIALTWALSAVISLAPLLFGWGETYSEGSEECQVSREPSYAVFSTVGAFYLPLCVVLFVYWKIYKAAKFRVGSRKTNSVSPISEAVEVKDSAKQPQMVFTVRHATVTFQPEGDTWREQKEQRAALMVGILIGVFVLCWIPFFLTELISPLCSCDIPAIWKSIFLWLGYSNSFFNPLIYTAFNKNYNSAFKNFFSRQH
Cannabinoid receptor 2, sequence (P34972 whole entry): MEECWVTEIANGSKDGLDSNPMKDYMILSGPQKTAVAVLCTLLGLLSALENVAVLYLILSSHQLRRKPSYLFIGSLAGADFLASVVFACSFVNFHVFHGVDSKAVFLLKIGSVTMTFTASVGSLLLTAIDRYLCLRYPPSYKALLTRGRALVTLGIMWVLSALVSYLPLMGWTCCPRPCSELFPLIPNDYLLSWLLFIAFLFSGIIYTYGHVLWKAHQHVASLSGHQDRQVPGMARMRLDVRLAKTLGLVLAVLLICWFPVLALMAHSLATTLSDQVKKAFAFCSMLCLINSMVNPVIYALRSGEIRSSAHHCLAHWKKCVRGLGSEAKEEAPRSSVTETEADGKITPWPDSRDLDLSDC
5-hydroxytryptamine receptor 2A, sequence (P28223 whole entry): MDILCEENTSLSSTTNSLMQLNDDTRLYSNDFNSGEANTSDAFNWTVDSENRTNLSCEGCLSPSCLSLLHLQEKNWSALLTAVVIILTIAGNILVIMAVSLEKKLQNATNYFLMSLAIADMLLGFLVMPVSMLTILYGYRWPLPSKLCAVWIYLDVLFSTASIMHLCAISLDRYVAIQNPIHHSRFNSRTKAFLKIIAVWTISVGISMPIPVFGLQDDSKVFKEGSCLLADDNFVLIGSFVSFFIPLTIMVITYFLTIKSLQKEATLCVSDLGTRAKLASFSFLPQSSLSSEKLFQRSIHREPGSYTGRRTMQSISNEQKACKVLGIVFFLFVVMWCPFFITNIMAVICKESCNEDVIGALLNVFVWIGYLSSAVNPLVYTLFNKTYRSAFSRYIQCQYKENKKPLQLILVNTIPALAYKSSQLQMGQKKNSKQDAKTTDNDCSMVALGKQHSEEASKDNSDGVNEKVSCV
D(2) dopamine receptor, sequence (P14416 whole entry): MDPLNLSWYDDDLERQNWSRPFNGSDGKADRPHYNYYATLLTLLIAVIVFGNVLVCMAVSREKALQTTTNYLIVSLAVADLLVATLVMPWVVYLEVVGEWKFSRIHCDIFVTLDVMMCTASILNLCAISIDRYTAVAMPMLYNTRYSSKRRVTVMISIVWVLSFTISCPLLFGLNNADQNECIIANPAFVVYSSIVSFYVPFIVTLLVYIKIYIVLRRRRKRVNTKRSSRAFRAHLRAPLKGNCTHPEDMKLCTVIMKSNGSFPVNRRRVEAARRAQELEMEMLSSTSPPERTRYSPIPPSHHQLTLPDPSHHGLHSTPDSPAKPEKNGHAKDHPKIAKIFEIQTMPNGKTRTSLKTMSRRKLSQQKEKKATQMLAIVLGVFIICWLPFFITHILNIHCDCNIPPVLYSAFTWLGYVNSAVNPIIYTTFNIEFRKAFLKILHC
Voltage-dependent calcium channel subunit alpha-2/delta-1, sequence (P54289 25-956 limits assumed): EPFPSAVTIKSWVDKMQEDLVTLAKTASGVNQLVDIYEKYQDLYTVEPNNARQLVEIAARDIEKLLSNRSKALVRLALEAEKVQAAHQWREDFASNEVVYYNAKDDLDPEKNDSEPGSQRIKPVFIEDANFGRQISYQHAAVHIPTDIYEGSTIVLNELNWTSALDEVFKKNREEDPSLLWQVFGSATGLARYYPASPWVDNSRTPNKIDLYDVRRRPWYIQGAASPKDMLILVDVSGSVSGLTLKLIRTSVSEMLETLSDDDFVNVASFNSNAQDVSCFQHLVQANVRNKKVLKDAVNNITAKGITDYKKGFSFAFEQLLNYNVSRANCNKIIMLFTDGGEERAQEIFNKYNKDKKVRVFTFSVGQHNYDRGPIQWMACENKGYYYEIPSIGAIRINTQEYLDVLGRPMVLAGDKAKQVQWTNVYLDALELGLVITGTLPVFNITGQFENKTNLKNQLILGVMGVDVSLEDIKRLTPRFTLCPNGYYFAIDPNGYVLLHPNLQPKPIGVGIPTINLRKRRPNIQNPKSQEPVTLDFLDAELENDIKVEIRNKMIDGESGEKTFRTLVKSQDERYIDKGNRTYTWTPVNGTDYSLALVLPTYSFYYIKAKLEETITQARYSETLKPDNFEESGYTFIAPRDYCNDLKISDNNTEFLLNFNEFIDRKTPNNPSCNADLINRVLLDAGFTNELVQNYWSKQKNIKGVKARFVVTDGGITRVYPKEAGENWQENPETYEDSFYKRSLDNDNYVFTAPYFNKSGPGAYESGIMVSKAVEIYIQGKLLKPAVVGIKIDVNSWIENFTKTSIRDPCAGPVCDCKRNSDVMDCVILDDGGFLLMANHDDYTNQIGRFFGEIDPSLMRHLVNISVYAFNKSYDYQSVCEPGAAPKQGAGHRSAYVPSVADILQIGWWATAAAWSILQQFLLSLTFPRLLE
Voltage-dependent calcium channel subunit alpha-2/delta-1, sequence (P54289 957-1103 limits assumed): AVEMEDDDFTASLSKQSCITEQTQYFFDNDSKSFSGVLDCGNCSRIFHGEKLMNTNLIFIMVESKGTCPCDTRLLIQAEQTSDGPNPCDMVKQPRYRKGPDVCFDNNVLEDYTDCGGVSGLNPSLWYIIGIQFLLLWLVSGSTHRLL

The Ki is a measure of affinity in units of concentration, obtained from inhibition or displacement. `C[C@@H]1C[C@@H](C)N1C(=O)C1C=C2c3cccc4[nH]cc(c34)C[C@H]2N(C)C1` (some centres not stated) [ss-2c]: the Ki in experiment [1] is 0.4 nM; in experiment [2], 2.4 nM; in experiment [3], 276 nM; in [4], 19.2 nM; in experiment [5], 27 nM; in experiment [6], 27.3 nM. For the same compound, the inhibitory constant (Ki) in experiment [7] amounted to 14.5 nM; in [8], 850 nM; at D(1A) dopamine receptor it was 292 nM; at D(2) dopamine receptor, 73.6 nM; on Histamine H1 receptor it was 2500 nM.

`CCN(CC)C(=O)N[C@H]1C=C2c3cccc4[nH]cc(c34)C[C@H]2N(C)C1` [lisuride, (S)]: the Ki in experiment [9] is greater than 10000 nM; in experiment [6], 3.1 nM; at Cannabinoid receptor 1, greater than 10000 nM; at Cannabinoid receptor 2 it was greater than 10000 nM; at D(1B) dopamine receptor, 77 nM; in [10] it was greater than 10000 nM. The Ki (in experiment [11]; in [12]; in experiment [13]; on Nischarin; in experiment [14]) was greater than 10000 nM each time.
